Molecular target: T1, JNK1 (Homo sapiens, UniProt P45983)
T1 construct: purchased Carna Biosciences
Test: JNK1 biochemical assays (one or more of: time resolved fluorescence, Z'-LYTE Cascade, radioactive)
Conditions: Table 2; JNK1 IC50 activity level; read-out: Act. Level

T1 sequence (P45983 whole entry): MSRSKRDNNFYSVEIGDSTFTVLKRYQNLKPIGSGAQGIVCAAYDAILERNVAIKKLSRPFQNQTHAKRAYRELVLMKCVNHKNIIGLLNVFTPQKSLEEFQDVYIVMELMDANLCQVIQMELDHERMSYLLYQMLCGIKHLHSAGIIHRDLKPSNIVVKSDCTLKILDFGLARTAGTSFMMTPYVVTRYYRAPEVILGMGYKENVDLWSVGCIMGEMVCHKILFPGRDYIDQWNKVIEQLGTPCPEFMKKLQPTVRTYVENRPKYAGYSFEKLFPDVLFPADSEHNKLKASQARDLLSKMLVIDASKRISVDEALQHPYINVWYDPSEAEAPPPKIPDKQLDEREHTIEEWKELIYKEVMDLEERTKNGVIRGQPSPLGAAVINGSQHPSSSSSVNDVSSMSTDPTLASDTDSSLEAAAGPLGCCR

IC50 [nM]	Structure (SMILES)
200 to 800	CC(Nc1ncc(C(N)=O)c(Nc2ccccc2)n1)c1ccccc1 (stereo not shown) [Example B-53, 4-(phenylamino)-2-(1-phenylethylamino)pyrimidine-5-carboxamide]
< 200	COc1cc(Nc2ncc(C(N)=O)c(Nc3ccccc3)n2)cc(OC)c1OC [Example B-19, 4-(phenylamino)-2-(3,4,5-trimethoxyphenylamino)pyrimidine-5-carboxamide]
200 to 800	NC(=O)c1cnc(NCCc2ccccc2)nc1Nc1ccccc1 [Example B-71, 2-(phenethylamino)-4-(phenylamino)pyrimidine-5-carboxamide]

Same assay, conditions: Table 3; JNK1 IC50 activity level; read-out: Act. Level

IC50 [nM]	Structure (SMILES)
200 to 800	N#Cc1cnc(NC2CCC(F)(F)CC2)nc1N[C@@H]1CCC[C@H](O)C1 [Example C-3, 2-(4,4-difluorocyclohexylamino)-4-((1R,3S)-3-hydroxycyclohexylamino) pyrimidine-5-carbonitrile]
1000 to 10000	CO[C@H]1CC[C@H](Nc2ncc(C#N)c(N[C@H]3CCCC[C@](C)(O)C3)n2)CC1 [Example C-51, 4-((1S,3S)-3-hydroxy-3-methylcycloheptylamino)-2-((1r,4S)-4-methoxycyclohexylamino) pyrimidine-5-carbonitrile]
200 to 800	N#Cc1cnc(N[C@H]2CC[C@H](O)CC2)nc1N[C@@H]1CCCC[C@@H]1O [Example C-31, 4-((1R,2S)-2-hydroxycyclohexylamino)-2-((1r,4R)-4-hydroxycyclohexylamino) pyrimidine-5-carbonitrile]

Same assay, conditions: one or more of the JNK1 biochemical assays; read-out: Act. Level (JNK1 IC50 activity level)

Structure (SMILES)	IC50 [nM]
CCC1(Nc2nc(N[C@H]3CC[C@H](O)CC3)ncc2C(N)=O)CCC1 [Example 362, 4-(1-ethylcyclobutylamino)-2-((1r,4r)-4-hydroxycyclohexylamino)pyrimidine-5-carboxamide]	< 200
NC(=O)c1cnc(N[C@H]2CC[C@H](O)CC2)nc1NC1C2CC1C2 (stereo partly shown) [Example 453, 4-(bicyclo[1.1.1]pentan-2-ylamino)-2-((1r,4r)-4-hydroxycyclohexylamino)pyrimidine-5-carboxamide]	< 200
CC1(C)CCC(Nc2nc(NC3CCC3)ncc2C(N)=O)CC1O (stereo not shown) [Example 428, 2-(cyclobutylamino)-4-(3-hydroxy-4,4-dimethylcyclohexylamino)pyrimidine-5-carboxamide]	< 200
CC(C)(C)Nc1ncc(C(N)=O)c(N[C@@H]2CCC[C@H]2CO)n1 [Example 330, 2-(tert-butylamino)-4-((1R,2R)-2-(hydroxymethyl)cyclopentylamino)pyrimidine-5-carboxamide]	< 200
CC1(Nc2ncc(C(N)=O)c(N[C@@H]3CCCC[C@H](O)C3)n2)CCC1 [Example 352, 4-((1R,3S)-3-hydroxycycloheptylamino)-2-(1-methylcyclobutylamino)pyrimidine-5-carboxamide]	< 200
CC[C@H](C)Nc1ncc(C(N)=O)c(N[C@@H]2CCC[C@H](O)C2)n1 [Example 496, 2-(sec-butylamino)-4-((1R,3S)-3-hydroxycyclohexylamino)pyrimidine-5-carboxamide]	< 200
NC(=O)c1cnc(N[C@H]2CC[C@H](OC3CC3)CC2)nc1N[C@@H]1CCC[C@H](O)C1 [Example 205, 2-((1r,4R)-4-cyclopropoxycyclohexylamino)-4-((1R,3S)-3-hydroxycyclohexylamino)pyrimidine-5-carboxamide]	< 200

Other lines, results leading:

IC50 [nM]	Structure (SMILES)
< 200	CCO[C@H]1CC[C@H](Nc2ncc(C(N)=O)c(N[C@@H](C)C3CCC3)n2)CC1 [Example 293, 4-((S)-1-cyclobutylethylamino)-2-((1r,4S)-4-ethoxycyclohexylamino)pyrimidine-5-carboxamide]
< 200	CC(C)(C)Nc1nc(N[C@H]2CCC[C@@H](O)C2)ncc1C(N)=O [Example 306, 4-(tert-butylamino)-2-((1S,3R)-3-hydroxycyclohexylamino)pyrimidine-5-carboxamide]
< 200	CO[C@H]1CC[C@H](Nc2ncc(C(N)=O)c(N[C@H](C)C(C)(C)C)n2)CC1 [Example 279, 4-((R)-3,3-dimethylbutan-2-ylamino)-2-((1r,4R)-4-methoxycyclohexylamino)pyrimidine-5-carboxamide]
200 to 800	CNC(=O)c1cnc(N[C@H]2CC[C@H](OC)CC2)nc1N[C@@H]1CCC[C@H](O)C1 [Example 206, 4-((1R,3S)-3-hydroxycyclohexylamino)-2-((1r,4R)-4-methoxycyclohexylamino)-N-methylpyrimidine-5-carboxamide]
< 200	C[C@H](Nc1nc(N[C@H]2CC[C@H](O)CC2)ncc1C(N)=O)C1CCC1 [Example 297, 4-((S)-1-cyclobutylethylamino)-2-((1r,4S)-4-hydroxycyclohexylamino)pyrimidine-5-carboxamide]
< 200	CC(C)(C)Nc1nc(N[C@H]2CC[C@H](OC(F)F)CC2)ncc1C(N)=O [Example 319, 4-(tert-butylamino)-2-((1r,4r)-4-(difluoromethoxy)cyclohexylamino)pyrimidine-5-carboxamide]
< 200	CC(C)(C)Nc1nc(N[C@H]2CCCOC2)ncc1C(N)=O [Example 300, (S)-4-(tert-butylamino)-2-(tetrahydro-2H-pyran-3-ylamino)pyrimidine-5-carboxamide]
< 200	CC(C)(C)Nc1nc(N[C@H]2CCCC[C@H](O)C2)ncc1C(N)=O [Example 387, 4-(tert-butylamino)-2-((1S,3S)-3-hydroxycycloheptylamino)pyrimidine-5-carboxamide]
< 200	CO[C@H]1CC[C@H](Nc2ncc(C(N)=O)c(NC(C)(C)C(C)(C)C)n2)CC1 [Example 333, 2-((1r,4r)-4-methoxycyclohexylamino)-4-(2,3,3-trimethylbutan-2-ylamino)pyrimidine-5-carboxamide]

Same assay, conditions: tested in one or more of the JNK1 biochemical assays; read-out: Act. Level (JNK1 biochemical assay IC50 activity level)

Structure (SMILES)	IC50 [nM]
NC(=O)c1cnc(N[C@H]2CCCOC2)nc1N[C@@H]1CCC[C@H](O)C1 [Example A-52, 4-((1R,3S)-3-hydroxycyclohexylamino)-2-((S)-tetrahydro-2H-pyran-3-ylamino)pyrimidine-5-carboxamide]	< 200
NC(=O)c1cnc(N[C@H]2CC[C@H](OC(F)F)CC2)nc1N[C@@H]1CCCC[C@H](O)C1 [Example A-165, 2-((1r,4R)-4-(difluoromethoxy)cyclohexylamino)-4-((1R,3S)-3-hydroxycycloheptylamino)pyrimidine-5-carboxamide]	< 200

The remaining lines, values ahead:

IC50 [nM]	Structure (SMILES)
< 200	CC(C)Nc1nc(N[C@H]2CC[C@H](OCC(F)(F)F)CC2)ncc1C(N)=O [Example A-1, 4-(isopropylamino)-2-((1r,4r)-4-(2,2,2-trifluoroethoxy)cyclohexylamino)pyrimidine-5-carboxamide]
< 200	CC[C@@H](C)Nc1nc(N[C@H]2CC[C@H](O)CC2)ncc1C(N)=O [Example A-189, 4-(sec-butylamino)-2-((1r,4R)-4-hydroxycyclohexylamino)pyrimidine-5-carboxamide]
< 200	CO[C@H]1CC[C@H](Nc2ncc(C(N)=O)c(N[C@H]3CCNC(=O)C3)n2)CC1 [Example A-25, 2-((1r,4S)-4-methoxycyclohexylamino)-4-((S)-2-oxopiperidin-4-ylamino)pyrimidine-5-carboxamide]
< 200	CC(C)(C)Nc1ncc(C(N)=O)c(N[C@@H]2CCCC[C@H](O)C2)n1 [Example A-182, 2-(tert-butylamino)-4-((1R,3S)-3-hydroxycycloheptylamino)pyrimidine-5-carboxamide]

— US12129237B2, “Substituted diaminocarboxamide and diaminocarbonitrile pyrimidines, compositions thereof, and methods of treatment therewith” (SIGNAL PHARMACEUTICALS, LLC, priority 2011, dated 2024)
